Legend:
Type in all cases: in vivo, rat
[1] = system: Dahl salt-sensitive rats (SS/JrHsd) on high salt diet; assay: Heart weight/body weight ratio in Dahl salt-sensitive rats on high salt diet; details: both doses (10 mg/l and 1 mg/l in drinking water), 7 weeks, FIG. 1
Method: (§1) 6-week-old male Dahl salt-sensitive rats (SS/JrHsd) received the following diet and drug regimens for 7 weeks: 1) Dahl SS controls on high salt diet, 2) Dahl SS rats on high salt diet+high-dose levosimendan (10 mg/l of levosimendan in drinking water), 3) Dahl SS rats on high salt diet+low-dose levosimendan (1 mg/l of levosimendan in drinking water) and 4) Dahl SS controls on low salt diet. High salt diet was produced by adding NaCl to commercial low salt diet. The consumption of drinking water and food as well as the body weight and general health of the animals were monitored. Systolic blood pressure was measured by using a tail cuff blood pressure at week 3.5 and week 7. At the end the study the hearts was excised, washed with ice-cold saline, blotted dry and weighed.

[2] = system: Dahl salt-sensitive rats (SS/JrHsd) on high salt diet; assay: Systolic blood pressure by tail cuff in Dahl salt-sensitive rats; details: data not shown
Method: as §1

[3] = system: Myocardial SERCA2 and NCX expressions; assay: Myocardial SERCA2/NCX protein ratio by Western blot; details: both doses (10 mg/l and 1 mg/l in drinking water), 7 weeks, high salt diet; FIG. 2
Method: as §1
Myocardial SERCA2 and NCX expressions were determined by Western blot analysis using standard procedure. Myocardial samples were homogenized in extraction buffer and protease inhibitor. Myocardial samples (15 μg protein per lane) were electrophoretically separated by SDS-PAGE (8% Acryl amide). The proteins were transferred to a PVDF membrane by semi-dry blotting in electrophoresis device. […] The films were scanned in a densitometer and a semi-quantitative measurement of the relative intensity of each protein band was performed using the “GeneSnap”-software program.

[4] = system: atrial natriuretic peptide (ANP) mRNA; assay: Myocardial atrial natriuretic peptide (ANP) mRNA expression by quantitative real time PCR; details: high dose (10 mg/l in drinking water), 7 weeks, high salt diet; FIG. 3
Method: as §1, with “At the end the study the hearts was excised, washed with ice-cold saline, blotted dry and weighed.” left out
Total RNA from the rat hearts were collected, treated with DNAse 1 and reverse transcribed to cDNA by incubation of 50 min in 45° C. with presence of reverse transcription enzyme (Enhanced avian HS RT-PCR kit, Sigma Chemicals Co.). 1 μl of cDNA was subjected to a quantitative real time polymerase chain reaction by Lightcycler instrument (Roche Diagnostics) for detection of ANP and GAPDH mRNAs. […] After amplification the quality of PCR products were analyzed with the melting step consisting of heating to 95° C., cooling to annealing temperature for 15 seconds, and finally a slow rise in temperature to 95° C. with a continuous acquisition of fluorescence decline. […]

[5] = system: Dahl salt-sensitive rats (SS/JrHsd) on high salt diet; assay: Echocardiography: interventricular septum (IVS) wall thickness; details: 3.5 weeks, FIG. 4
Method: 6-week-old male Dahl salt-sensitive rats (SS/JrHsd) received the following diet and drug regimens: Dahl salt-sensitive rats on low salt diet (1), on high salt diet (2), on high salt diet treated with 10 mg/l of levosimendan in drinking water (3), on high salt diet treated with 1 mg/l of levosimendan in drinking water (4) and on high salt diet treated with 0.5 mg/kg of the active metabolite (II) (OR-1896) of levosimendan in drinking water (5). High salt diet was produced by adding NaCl to commercial low salt diet. After 3.5 weeks transthoracic echocardiography was performed using a Toshiba Ultrasound System and a 15 MHz linear transducer under light isoflurane anesthesia. Using two-dimensional imaging, a short axis view of the left ventricle at the level of the papillary muscles was obtained and the two-dimensionally guided M-mode recording through the anterior and posterior walls of the left ventricle was obtained.

CC1CC(=O)NN=C1c1ccc(NN=C(C#N)C#N)cc1 (single isomer, unassigned; (-)) [Levosimendan, (−)-enantiomer of [[4-(1,4,5,6-tetrahydro-4-methyl-6-oxo-3-pyridazinyl)phenyl]hydrazono]propanedinitrile]
development of cardiac hypertrophy measured as heart weight-to-body weight-ratio [1]: equally prevented the development of cardiac hypertrophy
blood pressure ([2]; high-dose (10 mg/l in drinking water)): produced a transient decrease in blood pressure
blood pressure ([2]; low-dose (1 mg/l in drinking water)): did not influence blood pressure
myocardial SERCA2-to-NCX-ratio [3]: increased SERCA2-to-NCX-ratio in the heart
myocardial ANP mRNA expression [4]: decrease ANP mRNA expression to levels found in low salt diet controls
Interventricular septum (IVS) wall thickness ([5]; 10 mg/l and 1 mg/l in drinking water): significantly reduce the increased heart wall thickness

CC(=O)Nc1ccc(C2=NNC(=O)C[C@H]2C)cc1 [active metabolite (II), (R)-N-[4-(1,4,5,6-tetrahydro-4-methyl-6-oxo-3-pyridazinyl)phenyl]acetamide]
Interventricular septum (IVS) wall thickness ([5]; 0.5 mg/kg in drinking water): significantly reduce the increased heart wall thickness
